In ChEMBL document CHEMBL5370625, “Design of Next-Generation DGAT2 Inhibitor PF-07202954 with Longer Predicted Half-Life” (ACS Med Chem Lett, 2023):
Each block holds one compound with its values, some of them ahead of it.

How the values were obtained:
[1] = human, hepatocytes
Description: Apparent intrinsic clearance in human hepatocytes measured per million cells by LC-MS/MS analysis

[2] = biological target: T1, Diacylglycerol O-acyltransferase 2 (Homo sapiens, UniProt Q96PD7)
T1 sequence (Q96PD7 whole entry): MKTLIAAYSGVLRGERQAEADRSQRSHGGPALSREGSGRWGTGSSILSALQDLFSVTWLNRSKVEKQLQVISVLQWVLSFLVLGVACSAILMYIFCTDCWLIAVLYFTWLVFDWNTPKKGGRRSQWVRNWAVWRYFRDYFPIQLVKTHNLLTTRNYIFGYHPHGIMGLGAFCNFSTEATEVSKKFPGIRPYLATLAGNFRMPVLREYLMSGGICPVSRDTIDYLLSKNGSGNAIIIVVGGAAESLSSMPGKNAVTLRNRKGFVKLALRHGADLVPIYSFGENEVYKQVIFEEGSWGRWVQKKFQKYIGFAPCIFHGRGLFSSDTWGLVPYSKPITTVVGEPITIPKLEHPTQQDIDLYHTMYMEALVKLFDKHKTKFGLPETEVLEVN
Description: Inhibition of human DGAT2 using 14C decanoyl-CoA as a substrate pre incubated for 2 hrs followed by substrate addition measured after 40 mins by Trilux Microbeta reader analysis

physchem [3] = settings: octanol/aqueous buffer, pH 7.4
in vitro = settings: dog, MDCK
Description: Apparent permeability in MDCKII-LE cells incubated for 1.5 hrs

physchem [4] = test: physchem
Description: Dissociation constant, pKa of the compound

[5] = Volume of distribution at steady state in po dosed cynomolgus monkey; format: ADME, organism-based, Macaca fascicularis; settings: in vivo
[6] = Apparent intrinsic clearance in human hepatocytes measured per million cells at 1 uM incubated for 4 hrs by relay method; format: ADME, cell-based, Hepatocyte
[7] = Oral bioavailability in Wistar Han rat; format: ADME, organism-based; settings: in vivo
Rattus norvegicus [8] = test: Hepatoprotective activity in po dosed high sucrose diet induced Sprague-Dawley rat model assessed as reduction in liver triglycerides level measured after 2 to 4 hrs post last dose; format: functional, organism-based; settings: dose 10-100 mg/kg, time 2-4 hrs
[9] = Renal clearance in po dosed Wistar Han rat; format: ADME, organism-based; settings: in vivo
Rattus norvegicus [10] = test: Hepatoprotective activity in western diet induced Sprague-Dawley rat model assessed as reduction in liver triglycerides level at 100 mg/kg, po administered 7 days starting from day 14 post diet followed by single dose administration on day 8 and measured 2 hrs post last dose relative to control; format: functional; set-up: scale not given: the % may be the effect or the level left; settings: time 8 day
[11] = Volume of distribution at steady state in Beagle dog plasma at 1 mg/kg, iv; format: ADME, organism-based, Canis lupus familiaris; settings: read-out: Vdss
[12] = Half life of the compound in cynomolgus monkey at 1 mg/kg, iv; format: ADME, organism-based, Macaca fascicularis; settings: in vivo
[13] = Half life of the compound in Wistar Han rat at 1 mg/kg, iv; format: ADME, organism-based; settings: in vivo
[14] = Half life of the compound in Beagle dog plasma at 1 mg/kg, iv; format: ADME, organism-based, Canis lupus familiaris
Rattus norvegicus [15] = test: Hepatoprotective activity in po dosed western diet induced Sprague-Dawley rat model assessed as reduction in liver triglycerides level administered 7 days starting from day 14 post diet followed by single dose administration on day 8 and measured 2 hrs post last dose; format: functional, organism-based; settings: dose 3-100 mg/kg, time 8.0 day
[16] = Clearance in po dosed cynomolgus monkey plasma; format: ADME, organism-based, Macaca fascicularis
[17] = Renal clearance in po dosed cynomolgus monkey; format: ADME, organism-based, Macaca fascicularis; settings: in vivo
[18] = biological target: T2, Diacylglycerol O-acyltransferase 1 (Homo sapiens, UniProt O75907); test: Inhibition of DGAT1 (unknown origin)
T2 sequence (O75907 whole entry): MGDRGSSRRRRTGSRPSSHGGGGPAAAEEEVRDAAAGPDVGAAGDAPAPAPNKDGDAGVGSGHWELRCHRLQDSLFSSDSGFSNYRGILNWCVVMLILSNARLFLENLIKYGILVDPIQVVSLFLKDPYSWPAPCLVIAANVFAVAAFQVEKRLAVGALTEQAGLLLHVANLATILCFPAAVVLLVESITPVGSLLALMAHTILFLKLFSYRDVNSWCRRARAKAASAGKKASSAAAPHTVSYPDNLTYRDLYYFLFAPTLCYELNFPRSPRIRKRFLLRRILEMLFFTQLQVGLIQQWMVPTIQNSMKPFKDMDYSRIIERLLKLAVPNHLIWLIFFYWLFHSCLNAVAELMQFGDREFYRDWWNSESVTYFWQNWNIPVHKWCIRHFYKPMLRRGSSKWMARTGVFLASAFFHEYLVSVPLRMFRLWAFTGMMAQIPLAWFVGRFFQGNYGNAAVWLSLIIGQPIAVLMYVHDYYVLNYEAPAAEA

Rattus norvegicus [19] = test: Hepatoprotective activity in po dosed high sucrose diet induced Sprague-Dawley rat model assessed as reduction in plasma triglycerides level measured after 2 to 4 hrs post last dose; format: functional, organism-based; settings: dose 10-100 mg/kg, time 2-4 hrs
[20] = Volume of distribution at steady state in po dosed Wistar Han rat; format: ADME, organism-based; settings: in vivo
[21] = Half life of the compound in po dosed cynomolgus monkey; format: ADME, organism-based, Macaca fascicularis; settings: in vivo
[22] = Clearance in po dosed Wistar Han rat; format: ADME, organism-based; settings: in vivo
[23] = biological target: T3, Diacylglycerol O-acyltransferase 2 (Rattus norvegicus, UniProt Q5FVP8); test: Inhibition of rat DGAT2 using 14C decanoyl-CoA as a substrate pre incubated for 2 hrs followed by substrate addition measured after 40 mins by Trilux Microbeta reader analysis
T3 sequence (Q5FVP8 whole entry): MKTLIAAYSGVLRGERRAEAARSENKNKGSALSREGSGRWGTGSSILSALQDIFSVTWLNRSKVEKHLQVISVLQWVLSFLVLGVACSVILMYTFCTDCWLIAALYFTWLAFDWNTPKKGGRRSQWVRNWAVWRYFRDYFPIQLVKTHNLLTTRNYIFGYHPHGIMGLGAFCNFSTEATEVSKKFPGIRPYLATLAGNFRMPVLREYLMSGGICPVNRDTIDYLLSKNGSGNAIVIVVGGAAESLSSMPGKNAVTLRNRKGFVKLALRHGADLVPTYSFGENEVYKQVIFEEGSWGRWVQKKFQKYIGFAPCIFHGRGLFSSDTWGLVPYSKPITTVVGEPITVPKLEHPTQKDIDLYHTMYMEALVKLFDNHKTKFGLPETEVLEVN

Rattus norvegicus [24] = test: Hepatoprotective activity in po dosed western diet induced Sprague-Dawley rat model assessed as reduction in plasma triglycerides level administered 7 days starting from day 14 post diet followed by single dose administration on day 8 and measured 2 hrs post last dose; format: functional, organism-based; settings: dose 3-100 mg/kg, time 8.0 day
[25] = Renal clearance in Beagle dog plasma at 1 mg/kg,iv; format: ADME, organism-based, Canis lupus familiaris
Rattus norvegicus [26] = test: Hepatoprotective activity in western diet induced Sprague-Dawley rat model assessed as reduction in plasma triglycerides level at 100 mg/kg, po administered 7 days starting from day 14 post diet followed by single dose administration on day 8 and measured 2 hrs post last dose relative to control; format: functional; set-up: scale not given: the % may be the effect or the level left; settings: time 8 day
[27] = Clearance in Beagle dog plasma at 1 mg/kg,iv; format: ADME, organism-based, Canis lupus familiaris
[28] = Oral bioavailability in cynomolgus monkey; format: ADME, organism-based, Macaca fascicularis; settings: in vivo
[29] = Half life of the compound in po dosed Wistar Han rat; format: ADME, organism-based; settings: in vivo
[30] = Volume of distribution at steady state in cynomolgus monkey at 1 mg/kg, iv; format: ADME, organism-based, Macaca fascicularis; settings: in vivo, read-out: Vdss
[31] = Renal clearance in Wistar Han rat at 1 mg/kg, iv; format: ADME, organism-based; settings: in vivo
[32] = Renal clearance in cynomolgus monkey plasma at 1 mg/kg, iv; format: ADME, organism-based, Macaca fascicularis
[33] = Clearance in Wistar Han rat plasma at 1 mg/kg,iv; format: ADME, organism-based
[34] = Volume of distribution at steady state in Wistar Han rat at 1 mg/kg, iv; format: ADME, organism-based; settings: in vivo, read-out: Vdss

CLH(app) [1]: 38 µL/min | IC50 [2]: 4.4 nM | logD at 1 h (physchem [3]): 2.8 | Papp at 1.5 h (in vitro): 30 ×10⁻⁶ cm/s | pKa (physchem [4]): 4.5
Compound: CCOc1cccnc1Oc1cncc(-c2ncc(C(=O)N[C@H]3CC[C@@H](C(F)(F)F)NC3)cn2)c1 (relative stereo)

CLH(app) [1]: < 1.9 µL/min | logD at 1 h (physchem [3]): 1.4 | Papp at 1.5 h (in vitro): 8.8 ×10⁻⁶ cm/s
Compound: CCOc1cccnc1Oc1cncc(-c2ncc(C(=O)N[C@@H]3CNCC[C@H]3F)cn2)c1

IC50 [2]: 22000 nM | logD at 1 h (physchem [3]): -0.19 | Papp at 1.5 h (in vitro): 1.3 ×10⁻⁶ cm/s | pKa (physchem [4]): 10.1
Compound: CCOc1cccnc1Oc1cncc(-c2ncc(C(=O)NC3CCNCC3)cn2)c1

CLH(app) [1]: 9.3 µL/min | logD at 1 h (physchem [3]): 2.3 | Papp at 1.5 h (in vitro): 14 ×10⁻⁶ cm/s
Compound: CCOc1cccnc1Oc1cncc(-c2ncc(C(=O)N[C@@H]3CNCC(F)(F)C3)cn2)c1

Vdss [5]: 1.6 L/kg | CLH(app) [6]: 0.99 µL/min | bioavailability [7]: 12% | CL renal [9]: 7.5 mL/min/kg | Vd [11]: 2.1 L/kg | half-life [12]: 84 min | half-life [13]: 54 min | half-life [14]: 90 min | logD at 1 h (physchem [3]): 1.4 | Papp at 1.5 h (in vitro): 2.9 ×10⁻⁶ cm/s | CL/F [16]: 17 mL/min/kg | CL renal [17]: 0.29 mL/min/kg | IC50 [18]: > 50 µM | Vdss [20]: 2.7 L/kg | half-life [21]: 390 min | CL/F [22]: 64 mL/min/kg | IC50 [23]: 17 nM | CL renal [25]: 5.5 mL/min/kg | clearance [27]: 22 mL/min/kg | bioavailability [28]: 21%
Compound: CCOc1cccnc1Oc1cncc(-c2ncc(C(=O)N[C@@H]3CNC[C@@H](F)C3)cn2)c1
Activity (Rattus norvegicus [8]): Dose-Dependent Effect | Activity (Rattus norvegicus [10]): 48% | Activity (Rattus norvegicus [15]): Dose-Dependent Effect | Activity (Rattus norvegicus [19]): Dose-Dependent Effect | Activity (Rattus norvegicus [24]): Dose-Dependent Effect | Activity (Rattus norvegicus [26]): 71%

CLH(app) [1]: < 1.9 µL/min | IC50 [2]: 16 nM | logD at 1 h (physchem [3]): 0.96 | Papp at 1.5 h (in vitro): 4.7 ×10⁻⁶ cm/s | pKa (physchem [4]): 8
Compound: CCOc1cccnc1Oc1cncc(-c2ncc(C(=O)N[C@@H]3CNCC[C@@H]3F)cn2)c1

CLH(app) [1]: 4.7 µL/min | logD at 1 h (physchem [3]): 1.8 | Papp at 1.5 h (in vitro): 18 ×10⁻⁶ cm/s | pKa (physchem [4]): 6.4
Compound: CCOc1cccnc1Oc1cncc(-c2ncc(C(=O)N[C@@H]3CNCCC3(F)F)cn2)c1

CLH(app) [1]: < 1.8 µL/min | IC50 [2]: 500 nM | logD at 1 h (physchem [3]): -0.9 | Papp at 1.5 h (in vitro): 0.39 ×10⁻⁶ cm/s | pKa (physchem [4]): 9.2
Compound: CCOc1cccnc1Oc1cncc(-c2ncc(C(=O)N[C@H]3CCNC3)cn2)c1

CLH(app) [1]: 6.6 µL/min | IC50 [2]: 200 nM | logD at 1 h (physchem [3]): 1.7 | Papp at 1.5 h (in vitro): 13 ×10⁻⁶ cm/s | pKa (physchem [4]): 6.8
Compound: CCOc1cccnc1Oc1cncc(-c2ncc(C(=O)N[C@@H]3CNC[C@H](F)C3)cn2)c1 (racemic)

CLH(app) [6]: 3.9 µL/min | bioavailability [7]: 31% | half-life [29]: 84 min | Vd [30]: 0.71 L/kg | logD at 1 h (physchem [3]): 1.9 | Papp at 1.5 h (in vitro): 19 ×10⁻⁶ cm/s | half-life [21]: 234 min | CL renal [31]: < 0.1 mL/min/kg | CL renal [32]: < 0.1 mL/min/kg | bioavailability [28]: 48%
Compound: CCOc1cccnc1Oc1cncc(-c2ncc(C(=O)N[C@H]3CCOC3)cn2)c1 [PF-06865571]

CLH(app) [1]: < 1.9 µL/min | logD at 1 h (physchem [3]): 1.3 | Papp at 1.5 h (in vitro): 2.5 ×10⁻⁶ cm/s
Compound: CCOc1cccnc1Oc1cncc(-c2ncc(C(=O)N[C@H]3CNC[C@H](F)C3)cn2)c1

CLH(app) [1]: < 3 µL/min | bioavailability [7]: < 1% | clearance [33]: 51 mL/min/kg | half-life [13]: 114 min | IC50 [2]: 410 nM | logD at 1 h (physchem [3]): -0.15 | Papp at 1.5 h (in vitro): 0.68 ×10⁻⁶ cm/s | Vd [34]: 4.1 L/kg | CL renal [31]: 5.2 mL/min/kg | pKa (physchem [4]): 9.2
Compound: CCOc1cccnc1Oc1cncc(-c2ncc(C(=O)N[C@@H]3CCNC3)cn2)c1
